Results reported in patent US20230150981A1, “N-HETEROARYLALKYL-2-(HETEROCYCLYL AND HETEROCYCLYLMETHYL) ACETAMIDE DERIVATIVES AS SSTR4 AGONISTS” (Takeda Pharmaceutical Compnay Limited, priority 2020, published 2023).

Key:
[1] = target: T1, SSTR1 (Homo sapiens, UniProt P30872); assay: SSTR1 I-125 somatostatin competition binding assay for selectivity versus SSTR1 (CHO-K1 membranes); conditions: competition with I-125 somatostatin, membranes from CHO-K1 overexpressing SSTR1; read-out: SSTR1 Binding pIC50 (converted)
T1 construct: purchased Perkin Elmer ES-520-M400UA; host or cells: CHO-K1 membranes
T1 sequence (P30872 whole entry): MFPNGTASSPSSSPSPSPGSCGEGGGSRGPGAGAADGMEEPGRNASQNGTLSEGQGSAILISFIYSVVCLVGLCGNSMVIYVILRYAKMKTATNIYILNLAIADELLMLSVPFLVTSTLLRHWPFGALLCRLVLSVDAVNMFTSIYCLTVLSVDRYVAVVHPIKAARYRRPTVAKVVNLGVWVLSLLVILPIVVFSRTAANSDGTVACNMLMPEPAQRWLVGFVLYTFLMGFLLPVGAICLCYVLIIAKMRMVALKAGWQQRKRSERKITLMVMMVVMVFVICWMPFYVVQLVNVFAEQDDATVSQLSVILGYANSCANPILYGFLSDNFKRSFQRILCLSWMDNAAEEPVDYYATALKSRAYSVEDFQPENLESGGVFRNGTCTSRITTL
How it was run: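 Competition binding used 10 μg CHO-K1 SSTR1 membranes and I-125 somatostatin, 0.4 nM in the compound mix before membranes were added. Buffer was 25 mM HEPES pH 7.4, 10 mM MgCl2, 1 mM CaCl2, 0.5% BSA. After 60 min at room temperature, bound tracer was filtered onto PEI-soaked filters and counted by scintillation; values are pIC50.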

[2] = target: T2, SSTR4 (Homo sapiens, UniProt P31391); assay: SSTR4 I-125 somatostatin competition binding assay (CHO-K1 membranes); conditions: competition with I-125 somatostatin, membranes from CHO-K1 overexpressing SSTR4; read-out: SSTR4 Binding pIC50 (converted)
T2 construct: host or cells: CHO-K1
T2 sequence (P31391 whole entry): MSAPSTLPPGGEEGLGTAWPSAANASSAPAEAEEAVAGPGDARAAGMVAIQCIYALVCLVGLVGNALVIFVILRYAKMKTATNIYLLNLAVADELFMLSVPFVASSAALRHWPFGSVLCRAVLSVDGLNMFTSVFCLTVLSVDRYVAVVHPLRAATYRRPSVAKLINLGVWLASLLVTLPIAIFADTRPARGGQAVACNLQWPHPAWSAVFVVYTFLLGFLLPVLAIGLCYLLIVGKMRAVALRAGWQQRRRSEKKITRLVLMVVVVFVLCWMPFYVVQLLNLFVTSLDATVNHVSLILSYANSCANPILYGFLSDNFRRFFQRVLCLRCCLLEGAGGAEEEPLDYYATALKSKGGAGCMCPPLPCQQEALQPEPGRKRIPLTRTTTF
How it was run: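 CHO-K1 membranes overexpressing SSTR4 (1 μg/well) were incubated 60 min at room temperature with compound and I-125 somatostatin (0.2 nM in the compound mix) in 25 mM HEPES pH 7.4, 10 mM MgCl2, 1 mM CaCl2, 0.5% BSA. Bound radioligand was collected on PEI-soaked filters and scintillation-counted, with results reported as pIC50.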

[3] = target: T2, SSTR4; assay: Inhibition of forskolin stimulated cAMP in CHO-K1 cells overexpressing SSTR4; type: cell-based; conditions: read-out: SSTR4 Activity pEC50 (converted)
How it was run: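 CHO-K1 cells overexpressing SSTR4 treated 30 min at room temperature with compound in Krebs Ringer buffer containing 0.5% BSA, 300 μM IBMX and 350 nM forskolin. Intracellular cAMP measured by HTRF LANCE Ultra (665/615 nm); pEC50 values reported.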

Row | SMILES | IC50 [1] [µM] | IC50 [2] [µM] | EC50 [3] [µM]
1 | CC[C@H](CN1CCC1)C(=O)NC(C)(C)c1cccc(F)c1 (single isomer, unassigned) [Example 184] | 2 | 0.0158 | 0.000631
2 | CN1CCC[C@@H]1CC(=O)NC(C)(C)c1cc(Cl)ccc1Cl [Example 38, (R)-N-(2-(2,5-dichlorophenyl)propan-2-yl)-2-(1-methylpyrrolidin-2-yl)acetamide] | 25.1 | 0.316 | 0.0631
3 | Cc1cccc(OCC(C)(C)NC(=O)C[C@@H]2CCCN2C)n1 [Example 104, (S)-N-(2-methyl-1-((6-methylpyridin-2-yl)oxy)propan-2-yl)-2-(1-methylpyrrolidin-2-yl)acetamide] | 39.8 | 2 | 0.1
4 | CN1CCC[C@@H]1CC(=O)NC(C)(C)[C@@H]1CCc2ccccc2O1 (single isomer, unassigned) [Example 131] | 12.6 | 0.251 | 0.0501
5 | CC[C@@H](CN1CCC1)C(=O)N[C@H](c1ccccc1)C(F)F [Example 180, (S)-2-(azetidin-1-ylmethyl)-N-((R)-2,2-difluoro-1-phenylethyl)butanamide] | 0.631 | 0.00316 | 0.000126
6 | CN1CCC[C@@H]1CC(=O)NC(C)(C)COc1ncccc1C(F)(F)F [Example 49, (R)-N-(2-methyl-1-((3-(trifluoromethyl)pyridin-2-yl)oxy)propan-2-yl)-2-(1-methylpyrrolidin-2-yl)acetamide] | 15.8 | 0.2 | 0.0251
7 | CCN1CCCC1CC(=O)NC(C)(C)COc1ncccc1C(F)(F)F (stereo not drawn) [Example 50, 2-(1-ethylpyrrolidin-2-yl)-N-(2-methyl-1-((3-(trifluoromethyl)pyridin-2-yl)oxy)propan-2-yl)acetamide] | 12.6 | 0.126 | 0.0158
8 | Cc1ccccc1C(C)(C)NC(=O)[C@H](C)CN1CCC1 (single isomer, unassigned) [Example 140] | 12.6 | 0.0501 | 0.00631
9 | CN1CCC[C@@H]1CC(=O)NC(C)(C)c1nccc2occc12 [Example 39, (R)-N-(2-(furo[3,2-c]pyridin-4-yl)propan-2-yl)-2-(1-methylpyrrolidin-2-yl)acetamide] | > 50.1 | 0.794 | 0.0501
10 | CC(CN1CCC1)C(=O)NC(C)(C)c1ccccc1Cl (stereo not drawn) [Example 132, 3-(azetidin-1-yl)-N-(2-(2-chlorophenyl)propan-2-yl)-2-methylpropanamide] | 20 | 0.0794 | 0.00794
11 | CN1CCCCC1CC(=O)NC(C)(C)c1cccc(Cl)c1 (stereo not drawn) [Example 11, N-(2-(3-chlorophenyl)propan-2-yl)-2-(1-methylpiperidin-2-yl)acetamide] | 25.1 | 0.2 | 0.0398
12 | Cc1cccc2c(C(C)(C)NC(=O)C[C@H]3CCCN3C)noc12 [Example 19, (R)-N-(2-(7-methylbenzo[d]isoxazol-3-yl)propan-2-yl)-2-(1-methylpyrrolidin-2-yl)acetamide] | 10 | 0.126 | 0.0126
13 | CC(C)(NC(=O)CCN1CCC1)c1cccc(Cl)c1 [Example 164, 3-(azetidin-1-yl)-N-(2-(3-chlorophenyl)propan-2-yl)propanamide] | 31.6 | 0.0398 | 0.0126
14 | C[C@H](CN1CCC1)C(=O)NC(C)(C)c1ccccc1F (single isomer, unassigned) [Example 156] | 20 | 0.1 | 0.00794
15 | CC(C)(NC(=O)CCN1CCCC1)c1nccc2ccccc12 [Example 5, N-(2-(isoquinolin-1-yl)propan-2-yl)-3-(pyrrolidin-1-yl)propanamide] | 5.01 | 0.0501 | 0.00398
16 | Cc1cccc2c(C(C)(C)NC(=O)C[C@@H]3CCCN3C)nccc12 [Example 18, (S)-N-(2-(5-methylisoquinolin-1-yl)propan-2-yl)-2-(1-methylpyrrolidin-2-yl)acetamide] | 7.94 | 0.1 | 0.00794
17 | CN1CCCCC1CC(=O)NC(C)(C)c1ccc(Cl)cc1 (stereo not drawn) [Example 30, N-(2-(4-chlorophenyl)propan-2-yl)-2-(1-methylpiperidin-2-yl)acetamide] | 31.6 | 0.126 | 0.0316
18 | CN1CCCC1CC(=O)NC(C)(C)COc1ncccc1C(F)(F)F (stereo not drawn) [Example 28, N-(2-methyl-1-((3-(trifluoromethyl)pyridin-2-yl)oxy)propan-2-yl)-2-(1-methylpyrrolidin-2-yl)acetamide] | 15.8 | 0.251 | 0.02
19 | Cc1ccc(C(CF)NC(=O)CCN2CCC2)cc1 (stereo not drawn) [Example 173, 3-(azetidin-1-yl)-N-(2-fluoro-1-(p-tolyl)ethyl)propanamide] | > 50.1 | 0.2 | 0.02
20 | Cc1cc2ccccc2c(C(C)(C)NC(=O)C[C@H]2CCCN2C)n1 [Example 70, (R)-N-(2-(3-methylisoquinolin-1-yl)propan-2-yl)-2-(1-methylpyrrolidin-2-yl)acetamide] | 1.26 | 0.0794 | 0.00501
21 | O=C(CCN1CCC1)NC(c1cccc(Cl)c1)C(F)(F)F (single isomer, unassigned) [Example 192] | 31.6 | 0.126 | 0.0158
22 | Cc1cccc(C(C)(C)NC(=O)C[C@@H]2CCCN2C)c1Cl [Example 88, (S)-N-(2-(2-chloro-3-methylphenyl)propan-2-yl)-2-(1-methylpyrrolidin-2-yl)acetamide] | 39.8 | 0.398 | 0.0631
23 | CN1CCCCC1CC(=O)NC(C)(C)c1nn(C)c2ccccc12 (stereo not drawn) [Example 2, N-(2-(1-methyl-1H-indazol-3-yl)propan-2-yl)-2-(1-methylpiperidin-2-yl)acetamide] | 3.16 | 0.0631 | 0.00631

More lines, now with the values ahead:

Row | IC50 [1] [µM] | IC50 [2] [µM] | EC50 [3] [µM] | SMILES
24 | 5.01 | 0.1 | 0.00398 | Cc1cccc2c(C(C)(C)NC(=O)C[C@H]3CCCN3C)nccc12 [Example 17, (R)-N-(2-(5-methylisoquinolin-1-yl)propan-2-yl)-2-(1-methylpyrrolidin-2-yl)acetamide]
25 | 6.31 | 0.0501 | 0.00398 | Cc1cccc(C(C)(C)NC(=O)CCN2CCC2)c1Cl [Example 161, 3-(azetidin-1-yl)-N-(2-(2-chloro-3-methylphenyl)propan-2-yl)propanamide]
26 | 3.16 | 0.1 | 0.0126 | CN1CCC[C@@H]1CC(=O)NC(C)(C)c1nccc2ccccc12 [Example 16, (R)-N-(2-(isoquinolin-1-yl)propan-2-yl)-2-(1-methylpyrrolidin-2-yl)acetamide]
27 | 3.98 | 0.0501 | 0.00251 | Cc1cccc2c(C(C)(C)NC(=O)C[C@H]3CCCCN3C)nccc12 (single isomer, unassigned) [Example 8]
28 | 3.98 | 0.0251 | 0.00316 | C[C@@H](C(=O)NC(C)(C)c1nccc2ccccc12)[C@H]1CCCN1C (racemic) [Example 111, (R)-N-(2-(isoquinolin-1-yl)propan-2-yl)-2-((R)-1-methylpyrrolidin-2-yl)propanamide and (S)-N-(2-(isoquinolin-1-yl)propan-2-yl)-2-((S)-1-methylpyrrolidin-2-yl)propanamide]
29 | 5.01 | 0.0251 | 0.000794 | COc1c(F)cccc1C(C)(C)NC(=O)C(C)CN1CCC1 (stereo not drawn) [Example 170, 3-(azetidin-1-yl)-N-(2-(3-fluoro-2-methoxyphenyl)propan-2-yl)-2-methylpropanamide]
30 | 25.1 | 0.398 | 0.0398 | Cc1cccc(C(C)(C)NC(=O)C[C@H]2CCCN2C)c1Cl [Example 91, (R)-N-(2-(2-chloro-3-methylphenyl)propan-2-yl)-2-(1-methylpyrrolidin-2-yl)acetamide]
31 | 5.01 | 0.0398 | 0.00158 | Cc1ccc(C(NC(=O)CCN2CCC2)C(F)(F)F)cc1 (single isomer, unassigned) [Example 207]
32 | 6.31 | 0.02 | 0.000794 | O=C(CCN1CCC1)N[C@H](c1cccc(Cl)c1)C(F)F [Example 202, (R)-3-(azetidin-1-yl)-N-(1-(3-chlorophenyl)-2,2-difluoroethyl)propanamide]
33 | > 50.1 | 0.501 | 0.0316 | CCN1CCCC1CC(=O)NC(C)(C)c1nccc2occc12 (stereo not drawn) [Example 27, 2-(1-ethylpyrrolidin-2-yl)-N-(2-(furo[3,2-c]pyridin-4-yl)propan-2-yl)acetamide]
34 | > 50.1 | 0.316 | 0.1 | CN1CCC[C@H]1CC(=O)NC(C)(C)c1nccc2occc12 [Example 34, (S)-N-(2-(furo[3,2-c]pyridin-4-yl)propan-2-yl)-2-(1-methylpyrrolidin-2-yl)acetamide]
